According to PubChem BioAssay (NCI):
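Values below derive from 48-hour exposures of cells grown in 96-well plates, with endpoints linearly interpolated between the two concentrations bracketing the appropriate inhibition level. Abbreviation: GI50, concentration required for 50% inhibition of growth. TGI marks complete inhibition of growth.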

Tests used:
Test in all cases: DTP human tumour cell line panel, 48 h
TK-10 renal = system: TK-10 renal
HL-60(TB) leukemia = system: HL-60(TB) leukemia
A549 NSCLC = system: A549 NSCLC
786-0 renal = system: 786-0 renal
HCC-2998 colon = system: HCC-2998 colon
OVCAR-5 ovarian = system: OVCAR-5 ovarian
COLO 205 colon = system: COLO 205 colon
NCI/ADR-RES ovarian = system: NCI/ADR-RES ovarian
SF-268 CNS = system: SF-268 CNS
MDA-MB-435 = system: MDA-MB-435
MCF7 breast = system: MCF7 breast
UACC-62 melanoma = system: UACC-62 melanoma
NCI-H23 lung = system: NCI-H23 lung
DU-145 prostate = system: DU-145 prostate
RPMI-8226 leukemia = system: RPMI-8226 leukemia
K-562 leukemia = system: K-562 leukemia
IGROV1 ovarian = system: IGROV1 ovarian
SW-620 colon = system: SW-620 colon
OVCAR-8 ovarian = system: OVCAR-8 ovarian
NCI-H226 lung = system: NCI-H226 lung
SK-OV-3 ovarian = system: SK-OV-3 ovarian
HS 578T breast = system: HS 578T breast
UO-31 renal = system: UO-31 renal
EKVX NSCLC = system: EKVX NSCLC
MDA-MB-231 breast = system: MDA-MB-231 breast
MALME-3M melanoma = system: MALME-3M melanoma
HT29 colon = system: HT29 colon
NCI-H460 lung = system: NCI-H460 lung
SK-MEL-5 melanoma = system: SK-MEL-5 melanoma
OVCAR-3 ovarian = system: OVCAR-3 ovarian
CCRF-CEM leukemia = system: CCRF-CEM leukemia
ACHN renal = system: ACHN renal
SR leukemia = system: SR leukemia
MOLT-4 leukemia = system: MOLT-4 leukemia
M14 melanoma = system: M14 melanoma
BT-549 breast = system: BT-549 breast
SF-539 CNS = system: SF-539 CNS
HCT-15 colon = system: HCT-15 colon
PC-3 prostate = system: PC-3 prostate
NCI-H522 lung = system: NCI-H522 lung
A498 renal = system: A498 renal
SK-MEL-28 melanoma = system: SK-MEL-28 melanoma
T-47D breast = system: T-47D breast
OVCAR-4 ovarian = system: OVCAR-4 ovarian
SF-295 CNS = system: SF-295 CNS
HOP-92 NSCLC = system: HOP-92 NSCLC
HOP-62 NSCLC = system: HOP-62 NSCLC
UACC-257 melanoma = system: UACC-257 melanoma
SNB-75 CNS = system: SNB-75 CNS
RXF 393 renal = system: RXF 393 renal
SNB-19 CNS = system: SNB-19 CNS
SK-MEL-2 melanoma = system: SK-MEL-2 melanoma
CAKI-1 renal = system: CAKI-1 renal
KM12 colon = system: KM12 colon
HCT-116 colon = system: HCT-116 colon
SN12C renal = system: SN12C renal
U251 CNS = system: U251 CNS

Molecule `NS(=O)(=O)c1ccc(Nc2nc(Nc3ccccc3)nc(-n3nc(-c4ccccc4)cc3-c3ccccc3)n2)cc1` has a GI50 (TK-10 renal) of 3.87 µM, a TGI (TK-10 renal) of 8.93 µM and a GI50 (HL-60(TB) leukemia) of 2.24 µM. It also gave a TGI (HL-60(TB) leukemia) of 8.26 µM, a GI50 (A549 NSCLC) of 3.18 µM and a TGI (A549 NSCLC) of 17.9 µM. For the same molecule, the GI50 (786-0 renal) was 3.09 µM, the TGI (786-0 renal) was 10.6 µM and the GI50 (HCC-2998 colon) was 2.98 µM. The TGI (HCC-2998 colon) was 6.84 µM, the GI50 (OVCAR-5 ovarian) was 3.34 µM and the TGI (OVCAR-5 ovarian) was 14.3 µM. The GI50 (COLO 205 colon) was 1.78 µM, the TGI (COLO 205 colon) was 3.27 µM and the GI50 (NCI/ADR-RES ovarian) was 2.93 µM. The TGI (NCI/ADR-RES ovarian) was 11 µM, the GI50 (SF-268 CNS) was 3.97 µM and the TGI (SF-268 CNS) was > 100 µM. The GI50 (MDA-MB-435) was 3.32 µM, the TGI (MDA-MB-435) was 12.9 µM and the GI50 (MCF7 breast) was 2.27 µM. The TGI (MCF7 breast) was 6.61 µM, the GI50 (UACC-62 melanoma) was 1.81 µM and the TGI (UACC-62 melanoma) was 3.76 µM. The GI50 (NCI-H23 lung) was 2.84 µM, the TGI (NCI-H23 lung) was 9.12 µM and the GI50 (DU-145 prostate) was 3.16 µM. The TGI (DU-145 prostate) was 13 µM, the GI50 (RPMI-8226 leukemia) was 2.49 µM and the TGI (RPMI-8226 leukemia) was 8.69 µM. The GI50 (K-562 leukemia) was 2.62 µM, the TGI (K-562 leukemia) was 10.8 µM and the GI50 (IGROV1 ovarian) was 2.72 µM. It also gave a TGI (IGROV1 ovarian) of 11.4 µM, a GI50 (SW-620 colon) of 3.52 µM and a TGI (SW-620 colon) of 32.1 µM. It also gave a GI50 (OVCAR-8 ovarian) of 3.22 µM, a TGI (OVCAR-8 ovarian) of 16 µM and a GI50 (NCI-H226 lung) of 2.52 µM. The TGI (NCI-H226 lung) was 11 µM, the GI50 (SK-OV-3 ovarian) was 5.37 µM and the TGI (SK-OV-3 ovarian) was > 100 µM. The GI50 (HS 578T breast) was 4.31 µM, the TGI (HS 578T breast) was 62.7 µM and the GI50 (UO-31 renal) was 2.38 µM. It also gave a TGI (UO-31 renal) of 10 µM, a GI50 (EKVX NSCLC) of 2.96 µM and a TGI (EKVX NSCLC) of 17.4 µM. The GI50 (MDA-MB-231 breast) was 1.81 µM, the TGI (MDA-MB-231 breast) was 3.85 µM and the GI50 (MALME-3M melanoma) was 2.43 µM. The TGI (MALME-3M melanoma) was 7.09 µM, the GI50 (HT29 colon) was 2.38 µM and the TGI (HT29 colon) was 5.48 µM. It also gave a GI50 (NCI-H460 lung) of 2.07 µM, a TGI (NCI-H460 lung) of 4.66 µM and a GI50 (SK-MEL-5 melanoma) of 2.33 µM. The TGI (SK-MEL-5 melanoma) was 5.54 µM, the GI50 (OVCAR-3 ovarian) was 2.24 µM and the TGI (OVCAR-3 ovarian) was 4.97 µM. The GI50 (CCRF-CEM leukemia) was 2.94 µM, the TGI (CCRF-CEM leukemia) was > 100 µM and the GI50 (ACHN renal) was 2.59 µM. The TGI (ACHN renal) was 9.95 µM, the GI50 (SR leukemia) was 1.94 µM and the TGI (SR leukemia) was 5.94 µM. The GI50 (MOLT-4 leukemia) was 1.51 µM, the TGI (MOLT-4 leukemia) was 6.47 µM and the GI50 (M14 melanoma) was 3.22 µM. The TGI (M14 melanoma) was 12.5 µM, the GI50 (BT-549 breast) was 2.24 µM and the TGI (BT-549 breast) was 5.54 µM. The GI50 (SF-539 CNS) was 2.66 µM, the TGI (SF-539 CNS) was 10.3 µM and the GI50 (HCT-15 colon) was 3.08 µM. It also gave a TGI (HCT-15 colon) of 11.2 µM, a GI50 (PC-3 prostate) of 2.37 µM and a TGI (PC-3 prostate) of 7.89 µM. For the same molecule, the GI50 (NCI-H522 lung) was 2.29 µM, the TGI (NCI-H522 lung) was 7.39 µM and the GI50 (A498 renal) was 3.34 µM. It also gave a TGI (A498 renal) of 8.08 µM, a GI50 (SK-MEL-28 melanoma) of 3.87 µM and a TGI (SK-MEL-28 melanoma) of 16.9 µM. The GI50 (T-47D breast) was 2.96 µM, the TGI (T-47D breast) was 13.2 µM and the GI50 (OVCAR-4 ovarian) was 2.77 µM. It also gave a TGI (OVCAR-4 ovarian) of 9.32 µM, a GI50 (SF-295 CNS) of 3.02 µM and a TGI (SF-295 CNS) of 10.5 µM. It also gave a GI50 (HOP-92 NSCLC) of 2.16 µM, a TGI (HOP-92 NSCLC) of 6.18 µM and a GI50 (HOP-62 NSCLC) of 3.29 µM. It also gave a TGI (HOP-62 NSCLC) of 12.4 µM, a GI50 (UACC-257 melanoma) of 3.26 µM and a TGI (UACC-257 melanoma) of 23.3 µM. The GI50 (SNB-75 CNS) was 4.61 µM, the TGI (SNB-75 CNS) was > 100 µM and the GI50 (RXF 393 renal) was 1.99 µM. The TGI (RXF 393 renal) was 5.23 µM, the GI50 (SNB-19 CNS) was 3.43 µM and the TGI (SNB-19 CNS) was 20.9 µM. It also gave a GI50 (SK-MEL-2 melanoma) of 2.39 µM, a TGI (SK-MEL-2 melanoma) of 6.95 µM and a GI50 (CAKI-1 renal) of 2.45 µM. It also gave a TGI (CAKI-1 renal) of 9.55 µM, a GI50 (KM12 colon) of 2.77 µM and a TGI (KM12 colon) of 8.2 µM. For the same molecule, the GI50 (HCT-116 colon) was 1.74 µM, the TGI (HCT-116 colon) was 3.39 µM and the GI50 (SN12C renal) was 1.47 µM. The TGI (SN12C renal) was 2.88 µM, the GI50 (U251 CNS) was 2.91 µM and the TGI (U251 CNS) was 10.3 µM.
